Reference: BindingDB's records for doi:10.1016/j.bmcl.2003.10.023 (Boehringer Ingelheim (Canada), 2003)

Test: Inhibitory activity against calf thymus RNA polymerase

| SMILES | IC50 |
| --- | --- |
| O=C(O)c1ccc2c(c1)nc(-c1ncc[nH]1)n2C1CCCCC1 [1-Cyclohexyl-2-(1H-imidazol-2-yl)-1H-benzoimidazole-5-carboxylic acid] | > 500 µM |
| O=C(O)c1ccc2c(c1)nc(-c1ccc[nH]1)n2C1CCCCC1 [1-Cyclohexyl-2-(1H-pyrrol-2-yl)-1H-benzoimidazole-5-carboxylic acid] | > 500 µM |
| O=C(O)c1ccc2c(c1)nc(-c1ccco1)n2C1CCCCC1 [1-Cyclohexyl-2-furan-2-yl-1H-benzoimidazole-5-carboxylic acid] | > 500 µM |
| O=C(O)c1ccc2c(c1)nc(-c1nccs1)n2C1CCCCC1 [1-Cyclohexyl-2-thiazol-2-yl-1H-benzoimidazole-5-carboxylic acid] | > 500 µM |
| O=C(O)c1ccc2c(c1)nc(-c1cccs1)n2C1CCCCC1 [1-Cyclohexyl-2-thiophen-2-yl-1H-benzoimidazole-5-carboxylic acid] | > 500 µM |
| O=C(O)c1ccc2c(c1)nc(-c1ccsc1)n2C1CCCCC1 [1-Cyclohexyl-2-thiophen-3-yl-1H-benzoimidazole-5-carboxylic acid] | > 500 µM |
| O=C(O)c1ccc2c(c1)nc(-c1ccccc1)n2C1CCCCC1 [1-cyclohexyl-2-phenyl-1H-benzo[d]imidazole-5-carboxylic acid] | > 500 µM |
